This experiment concerns the target Acetylcholinesterase (Electrophorus electricus, UniProt O42275). The experiment can be described thus: Inhibition of electric eel acetylcholine esterase type V-S in presence of acetylcholine substrate by chemiluminescent assay.

The term IC50 denotes the concentration that inhibits the measured activity by half.

Acetylcholinesterase, sequence (O42275 whole entry): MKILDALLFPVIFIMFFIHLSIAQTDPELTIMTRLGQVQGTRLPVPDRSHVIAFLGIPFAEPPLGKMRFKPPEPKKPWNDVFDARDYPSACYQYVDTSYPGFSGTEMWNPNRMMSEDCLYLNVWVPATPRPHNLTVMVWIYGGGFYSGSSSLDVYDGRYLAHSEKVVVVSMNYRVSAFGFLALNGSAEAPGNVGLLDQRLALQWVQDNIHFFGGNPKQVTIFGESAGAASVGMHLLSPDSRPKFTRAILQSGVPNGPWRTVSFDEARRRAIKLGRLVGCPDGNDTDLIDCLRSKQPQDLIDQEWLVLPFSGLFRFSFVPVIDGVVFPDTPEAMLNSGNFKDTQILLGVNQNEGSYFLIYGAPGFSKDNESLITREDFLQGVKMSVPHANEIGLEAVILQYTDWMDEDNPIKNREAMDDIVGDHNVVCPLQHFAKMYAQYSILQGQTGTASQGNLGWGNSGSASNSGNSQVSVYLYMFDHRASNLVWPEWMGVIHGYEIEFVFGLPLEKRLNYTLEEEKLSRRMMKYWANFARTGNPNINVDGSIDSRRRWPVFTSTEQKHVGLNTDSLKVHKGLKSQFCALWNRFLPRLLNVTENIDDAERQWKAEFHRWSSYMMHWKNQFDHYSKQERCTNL

`CC(=O)N1CCN(/N=C/c2c(Cl)nc3sccn23)C1=O`: the IC50 came out at 60 µM.

`O=C(c1ccccc1)N1CCN(/N=C/c2c(Cl)nc3sccn23)C1=O`: the IC50 worked out at 4.2 µM.

Consider `CC(=O)N1CCN(/N=C/c2c(C)nc3sccn23)C1=O`, for which the IC50 came to 35 µM.

For the origin of these results see ChEMBL document CHEMBL1149802, “Chemiluminescent high-throughput microassay applied to imidazo[2,1-b]thiazole derivatives as potential acetylcholinesterase and butyrylcholinesterase inhibitors” (Eur J Med Chem, 2008).
